Results reported in patent publication US9556139B2, “6-substituted phenoxychroman carboxylic acid derivatives” (Array BioPharma Inc., priority 2008, dated 2017).
Structures can show the parent of a compound that is named as a salt. Where two headings read alike, the source gives them in different places.

Target: human DP2 (Homo sapiens (Human), UniProt Q9Y5Y4)
Test: DP-2 Binding Inhibition Assay (3H-PGD2 binding to membranes of K562 cells expressing DP2)
Settings: inhibition of 3H-PGD2 binding
Procedure: DP-2 Binding Inhibition Assay
The coding sequence of human DP2 was introduced into the human Leukemic cell line K562 by electroporation and stable clones expressing DP2 were obtained by limiting dilution followed by cell surface staining with a rat monoclonal antibody specific for human DP2. Membranes were prepared from one of these DP2 expressing clones and used to determine the ability of compounds of the present invention to inhibit binding of prostaglandin D2 (PGD2) to its receptor DP2 in the presence of one or more of the following serum protein concentrations, 0.1% BSA, 1% HSA or 4% HSA, by the following procedure. Membranes (1.25 μg/well for 0.1% BSA and 6 μg/well for 1% or 4% HSA) were mixed with ^3H-labeled PGD2 and various concentrations of test compounds in 150 μL of binding buffer (50 mM Tris-HCl, pH 7.4, 40 mM MgCl2, 0.1% bovine serum albumin, 0.1% NaN3) in 96-well U-bottom polypropylene plates. After incubation for 60 minutes at room temperature, the assay was transferred to a filtration plate (#MAFB; Millipore Corporation, Bedford, Mass.), and washed three times with binding buffer. Radioactivity was measured by a scintillation counter (TopCount; PerkinElmer Life Sciences, Boston, Mass.). Nonspecific binding was determined by incubations in the presence of 1 μM unlabeled PGD2 or 5 μM of a known DP2 antagonist. EC50 values for inhibition of binding were determined for each compound tested from the inflexion point of a standard 4-parameter logistical curve fitted to the values obtained.

[1] = read-out: EC50 (Nm) 1% HSA, 1% HSA
[2] = read-out: EC50 (nM) 4% HSA, 4% HSA

human DP2, sequence (Q9Y5Y4 whole entry): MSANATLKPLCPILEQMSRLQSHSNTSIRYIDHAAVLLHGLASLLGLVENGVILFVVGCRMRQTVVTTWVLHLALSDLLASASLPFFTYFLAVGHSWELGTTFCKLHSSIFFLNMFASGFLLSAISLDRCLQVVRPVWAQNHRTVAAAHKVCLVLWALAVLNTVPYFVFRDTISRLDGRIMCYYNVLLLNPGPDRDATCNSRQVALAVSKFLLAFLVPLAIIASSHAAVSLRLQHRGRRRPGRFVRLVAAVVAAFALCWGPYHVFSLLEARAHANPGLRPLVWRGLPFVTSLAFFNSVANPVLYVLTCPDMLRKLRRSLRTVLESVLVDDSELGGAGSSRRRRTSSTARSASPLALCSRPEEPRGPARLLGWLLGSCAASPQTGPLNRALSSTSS

EC50 (EC50 (nM) 4% HSA, 4% HSA) [nM]	EC50 [1] [nM]	EC50 [2] [nM]	Compound
794			O=C(NCCc1ccccc1)c1ccc(Oc2cc3c(cc2Cl)C(C(=O)O)CCO3)cc1 (stereo not shown) [Example 12, Sodium 6-chloro-7-(4-(phenethylcarbamoyl)phenoxy)chroman-4-carboxylate]
	12.1	14.8	N#Cc1cc2c(cc1Oc1ccc(C(=O)NC3CC3c3ccc(Cl)cc3)cc1)OCCC2C(=O)O (stereo not shown) [Example 51, 7-(4-((2-(4-Chlorophenyl)cyclopropyl)carbamoyl)phenoxy)-6-cyano-3,4-dihydro-2H-chromene-4-carboxylic acid]
		572	CSc1ccc(C2CCC(NC(=O)c3ccc(Oc4cc5c(cc4Cl)C(C(=O)O)CCO5)cc3)C2)cc1 (stereo not shown) [Example 175, Sodium 6-chloro-7-(4-(3-(4-(methylthio)phenyl)cyclopentylcarbamoyl)phenoxy)chroman-4-carboxylate]
	77.3		N#Cc1cc2c(cc1Oc1ccc(C(=O)NC3Cc4ccccc4C3)cc1)OCCC2C(=O)O (stereo not shown) [Example 6, 6-Cyano-7-(4-(2,3-dihydro-1H-inden-2-ylcarbamoyl)phenoxy)chroman-4-carboxylic acid]
		174	O=C(NCC1Cc2ccccc2C1)c1ccc(Oc2cc3c(cc2Cl)C(C(=O)O)CCO3)cc1 (stereo not shown) [Example 111, Sodium 6-chloro-7-(4-((2,3-dihydro-1H-inden-2-yl)methylcarbamoyl)phenoxy)chroman-4-carboxylate]
		80.4	O=C(NCCc1ccccc1Oc1ccccc1)c1ccc(Oc2cc3c(cc2Cl)C(C(=O)O)CCO3)cc1 (stereo not shown) [Example 65, Sodium 6-chloro-7-(4-(2-phenoxyphenethylcarbamoyl)phenoxy)chroman-4-carboxylate]
		165	O=C(NCCc1c(Cl)cccc1Cl)c1ccc(Oc2cc3c(cc2Cl)C(C(=O)O)CCO3)cc1 (stereo not shown) [Example 80, Sodium 6-chloro-7-(4-(2,6-dichlorophenethylcarbamoyl)phenoxy)chroman-4-carboxylate]
		270	CC(C)(C)C1CCC(NC(=O)c2ccc(Oc3cc4c(cc3C#N)C(C(=O)O)CCO4)cc2)CC1 (stereo not shown) [Example 127, 7-(4-(4-tert-Butylcyclohexylcarbamoyl)phenoxy)-6-cyanochroman-4-carboxylic acid]

Continued, compound first:

Compound	EC50 (EC50 (nM) 4% HSA, 4% HSA) [nM]	EC50 [1] [nM]	EC50 [2] [nM]
N#Cc1cc2c(cc1Oc1ccc(C(=O)NC3CC3c3ccccc3)cc1)OCCC2C(=O)O (stereo not shown) [Example 47, 7-(4-((2-Phenylcyclopropyl)carbamoyl)phenoxy)-6-cyano-3,4-dihydro-2H-chromene-4-carboxylic acid]		12.1	
COc1ccc(CCNC(=O)c2ccc(Oc3cc4c(cc3Cl)C(C(=O)O)CCO4)cc2)cc1 (stereo not shown) [Example 140, Sodium 6-chloro-7-(4-(4-methoxyphenethylcarbamoyl)phenoxy)chroman-4-carboxylate]			498
O=C(NCCc1cccn1-c1ccc(C(F)(F)F)cc1)c1ccc(Oc2cc3c(cc2Cl)C(C(=O)O)CCO3)cc1 (stereo not shown) [Example 194, sodium 6-chloro-7-(4-(2-(1-(4-(trifluoromethyl)phenyl)-1H-pyrrol-2-yl)ethylcarbamoyl)phenoxy)chroman-4-carboxylate]			3010
N#Cc1cc2c(cc1Oc1ccc(C(=O)NCCc3ccc(F)cc3)cc1)OCCC2C(=O)O (stereo not shown) [Example 49, 7-(4-((4-Fluorophenethyl)carbamoyl)phenoxy)-6-cyano-3,4-dihydro-2H-chromene-4-carboxylic acid]		22.5	
O=C(NCCc1ccc(Cl)cc1Cl)c1ccc(Oc2c(Cl)cc3c(c2C2CC2)OCCC3C(=O)O)cc1 (stereo not shown) [Example 43, Sodium 6-chloro-8-cyclopropyl-7-(4-(2,4-dichlorophenethylcarbamoyl)phenoxy)chroman-4-carboxylate]			51.5
Cc1ccc(C2CCCC(NC(=O)c3ccc(Oc4cc5c(cc4Cl)C(C(=O)O)CCO5)cc3)C2)cc1 (stereo not shown) [Example 160, 6-Chloro-7-(4-(3-(4-methylphenyl)cyclohexylcarbamoyl)phenoxy)chroman-4-carboxylic acid]			350
N#Cc1cc2c(cc1Oc1ccc(C(=O)Nc3ccc4c(c3)CNCC4)cc1)OCCC2C(=O)O (stereo not shown) [Example 45, 6-Cyano-7-(4-(1,2,3,4-tetrahydroisoquinolin-7-ylcarbamoyl)phenoxy)chroman-4-carboxylic acid hydrochloride]		1370	
